From ChEMBL document CHEMBL3044797 (Crop Prot, 2008) come the findings set out here.

Format in all cases: functional, organism-based
Test [1] relates to Phytophthora capsici. The test is described as follows: Fungicidal activity against Phytophthora capsici assessed as inhibition of mycelial growth.
Test [2] deals with Colletotrichum truncatum. The test is described as follows: Fungicidal activity against Colletotrichum capsici assessed as inhibition of mycelial growth.
Test [3] has as its system Fusarium verticillioides. In words: Fungicidal activity against Fusarium verticillioides assessed as inhibition of mycelial growth.
In test [4] the test system is Fusarium graminearum. The test is described as follows: Fungicidal activity against Wind-type carbendazim-sensitive Fusarium graminearum isolate.
The test system of test [5] is Pseudoperonospora cubensis. The test is described as follows: Fungicidal activity against Pseudoperonospora cubensis zoosporangia isolate obtained from downy mildew diseased cucumber plant assessed as reduction in mildew development measured after 7 to 10 days.
Test [6] has as its system Pyricularia grisea. In words: Fungicidal activity against Magnaporthe grisea assessed as inhibition of mycelial growth.
For test [7], the system named is Fusarium graminearum. In words: Fungicidal activity against compound-sensitive Fusarium graminearum isolate.
The test system of test [8] is Botrytis cinerea. In words: Fungicidal activity against Botryotinia fuckeliana assessed as inhibition of mycelial growth.
For test [9], the system named is Blumeria graminis. In words: Fungicidal activity against Blumeria graminis infested wheat plant in greenhouse assessed as reduction in powdery mildew formation measured after 10 days. The note with it: 240 h.
Test [10] deals with Alternaria solani. In words: Fungicidal activity against Alternaria solani assessed as inhibition of mycelial growth.
Test [11] concerns Dothiorella gregaria. In words: Fungicidal activity against Dothiorella gregaria assessed as inhibition of mycelial growth.
In test [12] the test system is Fusarium oxysporum. The test is described as follows: Fungicidal activity against Fusarium oxysporum assessed as inhibition of mycelial growth.
Test [13] relates to Sclerotinia sclerotiorum. The test is described as follows: Fungicidal activity against Sclerotinia sclerotiorum assessed as inhibition of mycelial growth.

SMILES strings stand for the structures. In brackets after ≈: the same amount, converted by molar mass.

Broadly, the EC50 is the concentration that produces a half-maximal response. Turning to `CCOC(=O)/C(C#N)=C(/N)c1ccccc1`, the concentration giving a half-maximal response (EC50) is 111 µg/mL (≈ 515 µM) in test [1]; 28.2 µg/mL (≈ 130 µM) in [2]; 0.459 µg/mL (≈ 2.12 µM) in test [3]; 0.108 µg/mL (≈ 0.499 µM) in test [4]; 12.7 µg/mL (≈ 58.9 µM) in [5]; 77.1 µg/mL (≈ 356 µM) in test [6]. Further, the half-maximal effective concentration (EC50) in [7] is 0.141 µg/mL (≈ 0.652 µM); in test [8], 72.2 µg/mL (≈ 334 µM); in [9], more than 1000 µg/mL; in test [10] it was 133 µg/mL (≈ 616 µM); in test [11] it was 39.7 µg/mL (≈ 184 µM); in test [12], 3.56 µg/mL (≈ 16.5 µM). Further, the 50% effective concentration (EC50) in test [13] was found to be 72.1 µg/mL (≈ 333 µM).
